Earlier results in PMC6962532 (Journal of the American Chemical Society, 2020).

What was measured:
[1] = test system: AgrC-I; conditions: for activity of native AIP signal on AgrC-I: cross-group interaction
[2] = test system: AgrC-III; conditions: cross-group interaction
[3] = test system: AgrC-II; conditions: cross-group interaction

A-S-A-(C-A-A-Y-F) [AAA]
IC50 value ([1]; AgrC-I, in words): single-digit nanomolar

D-S-A-(C-A-S-Y-F) [AIP-I V3A]
antagonism potency relative to t-AIP-I ([1]; AgrC-I): approximately four-fold more potent

D-S-V-(C-A-S-Y-F) [AIP-I]
activity of native AIP signal on AgrC-III [2]: inhibits
activity of native AIP signal on AgrC-II [3]: inhibits

N-A-A-K-Y-N-P-(C-A-S-Y-L) [AIP-III]
activity of native AIP signal on AgrC-I [1]: inhibit

N-A-S-K-Y-N-P-(C-S-N-Y-L) [AIP-II]
activity of native AIP signal on AgrC-I [1]: inhibit
